Measurements from PubChem BioAssay AID2060614 (Molecular Pharmacology Branch, DTP, NCI, 2025).

Tested on: 598228-144-R-J1-PDC complex spheroids, viability
Test: Anticancer human tumor 598228-144-R-J1-PDC patient-derived serous endometrial adenocarcinoma cell line growth inhibition [CLK]
Conditions: for IC50: curve of first compound; for viability, T/C: stronger effect = lower value; active means viability on the fitted dose curve at most 10% of control; inactive means the rest
Excerpt: A high-throughput screen of multi-cell type tumor spheroids was designed to identify active combinations of […] and targeted small molecules. Complex spheroids include a stromal component modeled by human endothelial cells (HUVEC) and fibroblasts modeled by human mesenchymal stem cells (MSCs). The concentration ranges selected for each drug and investigational agent were based upon clinically achievable concentrations if the clinical Cmax of the agent was known.
Compounds. The drugs and investigational agents: cirtuvivint (SM08502; NSC835563), CC-671 (NSC850746), vemurafenib (NSC761431), tapotoclax (NSC804041), sotorasib (NSC818433), adagrasib (NSC831453), MRTX-1133 (NSC836407), BAY2416964 (NSC825713), copanlisib (NSC816437), inavolisib (NSC800729), abemaciclib (NSC768073), osimertinib (NSC779217), entinostat (NSC756642), eltanexor (KPT-8602, NSC794443), venetoclax (NSC766270), ceralasertib (NSC777638), bortezomib (NSC756655), olaparib (NSC753686), talazoparib (NSC767125), alisertib (NSC759677), peposertib (NSC802822), gemcitabine (NSC613327), 5-fluorouracil (NSC19893), SN-38 (NSC673596), oxaliplatin (NSC266046), paclitaxel (NSC125973), and doxorubicin (NSC123127), were obtained from the National Cancer Institute (NCI) Developmental Therapeutics Program Chemical Repository. The FDA-approved anticancer drug set is available from the Developmental Therapeutics Program at https://dtp.cancer.gov/organization/dscb/obtaining/available plates.htm. […] The stock solutions were prepared in dimethyl sulfoxide (DMSO, Sigma-Aldrich, St. Louis, MO, cat. D2650), except for the platinum complexes which were prepared in saline (Quality Biological, Gaithersburg, MD, cat. 114-055-101), at 800-fold the tested concentration and stored at -70 degrees C prior to their use. All drugs and investigational agents were tested over a range starting from a high concentration at or near the clinical Cmax and decreasing in half-log increments. If the clinical Cmax for an agent had not been determined, the highest concentration tested was 10 microM.
Cell Culture. All cells were maintained in an incubator at 37 degrees C and 5% CO2 with 95% humidity. The PDC lines were cultured according to standard operating procedures established by the NCI PDMR. Briefly, all PDCs were thawed and cultured in Matrigel-coated flasks prepared with a working solution of 1X Ham's F-12 nutrient mix, without supplementation (Invitrogen, Waltham, MA, cat. 11765054), 100 U/mL penicillin-streptomycin (Invitrogen, cat. 15140122), and 2.5% Matrigel (Corning Inc., Corning, NY, cat. 354248) for the first three passages. The 947758-054-R-J2-PDC line was cultured in 6B/Colon 1A media, which includes advanced DMEM/F-12 (Thermo Fisher Scientific, cat. 12634028), 10 mM HEPES (Thermo Fisher Scientific, cat. 15630080), 1X GlutaMAX supplement (Thermo Fisher Scientific, cat. 35050061), 0.1 mg/mL primocin (InvivoGen, cat. ant-pm-2), 10% defined fetal bovine serum, heat inactivated (HyClone Laboratories Inc., cat. SH30070.03HI), 1.25 mM N-Acetyl-L-cysteine (Sigma-Aldrich, cat. A9165), 10 mM nicotinamide (Sigma-Aldrich, cat. N0636), 1X B-27 supplement (Thermo Fisher Scientific, cat. 17504044), 1X N-2 supplement (Thermo Fisher Scientific, cat. 17502048), and 10 microM Y-27632 dihydrochloride (Tocris Bioscience, cat. 1254). The 876862-298-R-J1-PDC was cultured in 6E media, which includes all 6B/Colon 1A media components plus 50% L-WRN conditioned media (ATCC, cat. CRL-3276), 50 ng/mL recombinant human EGF recombinant protein (hEGF; Thermo Fisher Scientific, cat. PHG0311), 10 ng/mL recombinant human fibroblast growth factor 10 (hGFG-10; PeproTech, cat. 100-26), 1 ng/mL recombinant human fibroblast growth factor 2 (hFGF-2; PeproTech, cat. 100-18B), and 1 µM prostaglandin E2 (PGE2; Tocris, cat. 2296). The 227483-062-R1-J1-PDC line was cultured in Panc media, containing all 6E components except hFGF-2, with the addition of 500 nM SB-431542 (Selleckchem, cat. S1067) and 10 nM gastrin (Tocris, cat. 3006). […]

[1] = second compound 0.0316 µM, first compound 0.0316 µM
[2] = second compound 0.0316 µM, first compound 0.1 µM
[3] = second compound 0.0316 µM, first compound 0.316 µM
[4] = second compound 0.0316 µM, first compound 1 µM
[5] = second compound 0.1 µM, first compound 0.0316 µM
[6] = second compound 0.1 µM, first compound 0.1 µM
[7] = second compound 0.1 µM, first compound 0.316 µM
[8] = second compound 0.1 µM, first compound 1 µM
[9] = second compound 0.316 µM, first compound 0.0316 µM
[10] = second compound 0.316 µM, first compound 0.1 µM
[11] = second compound 0.316 µM, first compound 0.316 µM
[12] = second compound 0.316 µM, first compound 1 µM
[13] = second compound 1 µM, first compound 0.0316 µM
[14] = second compound 1 µM, first compound 0.1 µM
[15] = second compound 1 µM, first compound 0.316 µM
[16] = second compound 1 µM, first compound 1 µM
[17] = second compound 3.16 µM, first compound 0.0316 µM
[18] = second compound 3.16 µM, first compound 0.1 µM
[19] = second compound 3.16 µM, first compound 0.316 µM
[20] = second compound 3.16 µM, first compound 1 µM
[21] = second compound 10 µM, first compound 0.0316 µM
[22] = second compound 10 µM, first compound 0.1 µM
[23] = second compound 10 µM, first compound 0.316 µM
[24] = second compound 10 µM, first compound 1 µM
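Further: spheroids exposed to compounds for seven days before readout.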
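Wherever viability, T/C is given: 100% = DMSO vehicle control wells.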

CCc1c2c(nc3ccc(O)cc13)-c1cc3c(c(=O)n1C2)COC(=O)[C@]3(O)CC + CNC(=O)c1ccc(Nc2nc(OC3CCCC3)c3c(-c4ccc5nc(C)oc5c4)c[nH]c3n2)c(OC)c1
100 nM: IC50 (second compound 0.316 µM)
51.5 nM: IC50 (second compound 0.0316 µM)
56.4 nM: IC50 (second compound 0.1 µM)
33.2 nM: IC50 (second compound 10 µM)
inactive: viability, T/C (second compound 0.0316 µM, first compound 0.00316 µM) 91% | viability, T/C (second compound 0.0316 µM, first compound 0.01 µM) 77.3% | viability, T/C [1] 65.9% | viability, T/C [2] 30.8% | viability, T/C [3] 14.4% | viability, T/C (second compound 0.1 µM, first compound 0.00316 µM) 106% | viability, T/C (second compound 0.1 µM, first compound 0.01 µM) 84.5% | viability, T/C [5] 65.2% | viability, T/C [6] 38.5% | viability, T/C [7] 16.2% | viability, T/C [8] 14.9% | viability, T/C (second compound 0.316 µM, first compound 0.00316 µM) 124% | viability, T/C (second compound 0.316 µM, first compound 0.01 µM) 111% | viability, T/C [9] 97% | viability, T/C [10] 48.3% | viability, T/C [11] 21.6% | viability, T/C [12] 10.5% | viability, T/C (second compound 1 µM, first compound 0.00316 µM) 117% | viability, T/C (second compound 1 µM, first compound 0.01 µM) 95% | viability, T/C [13] 73.8% | viability, T/C [14] 33.2% | viability, T/C [15] 16.3% | viability, T/C (second compound 3.16 µM, first compound 0.00316 µM) 108% | viability, T/C (second compound 3.16 µM, first compound 0.01 µM) 95.9% | viability, T/C [17] 63.9% | viability, T/C [18] 32.9% | viability, T/C [19] 17.3% | viability, T/C (second compound 10 µM, first compound 0.00316 µM) 110% | viability, T/C (second compound 10 µM, first compound 0.01 µM) 85.9% | viability, T/C [21] 49.3% | viability, T/C [22] 27.5% | viability, T/C [23] 13.8%
active: viability, T/C [4] 6.44% | viability, T/C [16] 10.8% | viability, T/C [20] 8.19% | viability, T/C [24] 9.24%
54.2 nM: IC50 (second compound 3.16 µM)
61.5 nM: IC50 (second compound 1 µM)

COc1ccc([C@@H](O)c2cc(-c3ncnc4cc(N5CCOCC5)ccc34)c(F)cc2Cl)nn1 + CNC(=O)c1ccc(Nc2nc(OC3CCCC3)c3c(-c4ccc5nc(C)oc5c4)c[nH]c3n2)c(OC)c1
5470 nM: IC50 (second compound 0.1 µM)
2270 nM: IC50 (second compound 10 µM)
3710 nM: IC50 (second compound 3.16 µM)
3670 nM: IC50 (second compound 1 µM)
4050 nM: IC50 (second compound 0.316 µM)
inactive: viability, T/C [1] 120% | viability, T/C [2] 109% | viability, T/C [3] 99% | viability, T/C [4] 94.9% | viability, T/C (second compound 0.0316 µM, first compound 3.16 µM) 61.8% | viability, T/C (second compound 0.0316 µM, first compound 10 µM) 41.3% | viability, T/C [5] 116% | viability, T/C [6] 109% | viability, T/C [7] 87.7% | viability, T/C [8] 90.1% | viability, T/C (second compound 0.1 µM, first compound 3.16 µM) 67.5% | viability, T/C (second compound 0.1 µM, first compound 10 µM) 32.1% | viability, T/C [9] 99.4% | viability, T/C [10] 102% | viability, T/C [11] 75.5% | viability, T/C [12] 84.6% | viability, T/C (second compound 0.316 µM, first compound 3.16 µM) 51.9% | viability, T/C (second compound 0.316 µM, first compound 10 µM) 29.7% | viability, T/C [13] 95.2% | viability, T/C [14] 102% | viability, T/C [15] 77% | viability, T/C [16] 78.3% | viability, T/C (second compound 1 µM, first compound 3.16 µM) 52.5% | viability, T/C (second compound 1 µM, first compound 10 µM) 25.3% | viability, T/C [17] 94.3% | viability, T/C [18] 74.7% | viability, T/C [19] 90% | viability, T/C [20] 75.1% | viability, T/C (second compound 3.16 µM, first compound 3.16 µM) 53.9% | viability, T/C (second compound 3.16 µM, first compound 10 µM) 27.4% | viability, T/C [21] 88.9% | viability, T/C [22] 90.9% | viability, T/C [23] 81.7% | viability, T/C [24] 77.5% | viability, T/C (second compound 10 µM, first compound 3.16 µM) 38.9% | viability, T/C (second compound 10 µM, first compound 10 µM) 28.9%
6490 nM: IC50 (second compound 0.0316 µM)
